The target of assay [1] is T1, AAK1 (Homo sapiens, UniProt Q2M2I8).
T1 construct: NP_055726.2
Briefly: P81 filter plate assay. Type of assay: biochemical. Particulars: full-length human AAK1, Mu2 substrate, 33P-ATP. In short, it runs like this:
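Full-length human AAK1 (0.2 nM, 2×) was pre-incubated 10 min at RT with compounds (top concentration 96 μM in the dilution plate), then reacted 1 h at RT with full-length human Mu2 (0.2 μM, 2×), cold ATP (2 μM, 2×) and ³³P-ATP. Reactions were stopped with phosphoric acid and captured on P81 filters for scintillation counting.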

In assay [2] the target is T1, AAK1. Briefly: HEK281 cell-based assay (CBA). As to conditions: HEK293F cells transfected with full length human AAK1 and AP2M1; phospho-mu2 Western blot; 3 hours incubation. How it is done: HEK293F cells were cultured in media containing DMEM (Gibco, cat. #11965), 10% FBS (SAFC Biosciences, cat. #12103C), 1× GPS (glutamine, penicillin and streptomycin). On day one, cells were plated on a 10 cm dish so that they are ˜80% confluent at time of transfection. Roughly 12 million cells were in a 10 cm dish at time of transfection. On day two, each dish was transfected with 48 ug DNA and 144 ul Lipofectamine 2000 (Invitrogen, cat. #11668-019). The DNA was comprised of a mixture (per 10 cm dish) containing 3 ug AAK1/HA/pIRES (full length human, NCBI accession no. NP_055726.2), 45 μg Flag/AP2MI/pcDNA (full length human), and 1.5 ml OPTI-MEM. The Lipofectamine 2000 is made up of a mixture (per 10 cm dish) containing 144 μl Lipofectamine 2000 and 1.5 ml OPTI-MEM. Each mixture was transferred to individual 15 ml tubes and incubated at RT for 5 minutes, and then the two mixes were combined and incubated at RT for 20 minutes.
Growth media was then aspirated from each 10 cm plate and replaced with 10 ml of DMEM+10% FBS (no GPS). Finally, 3 ml DNA/Lipofectamine mix was added to each 10 cm dish and mix gently followed by incubate of plate overnight at 37° C. and 5% CO2.
On day three, compounds were diluted in 100% DMSO at 1000× final concentration, followed by 3-fold serial dilutions for a total of 5 concentrations tested. Four compounds were tested per 10 cm dish. One ul of each compound dilution was then pipetted into a deep-well, 96-well plate, followed by addition of 500 μl DMEM+0.5% FBS into each well for a 2× final concentration of each compound. Cells were resuspended in a 10 cm dish by simple pipetting (HEK293 cells come off the plate that easy at this point) and then transferred to a 50 ml conical tube and pelleted by centrifugation at 1000 rpm for 5 min. Cell pellets were then resuspended in 2.75 ml DMEM+0.5% FBS per 10 cm dish and 100 μl of cell suspension transferred into each well of 96-well TC plate. Finally, 100 μl of 2× compound diluted in DMEM+0.5% FBS was then added into wells containing cell suspension for a 1× final concentration. Plates were then incubated at 37° C. and 5% CO2 for 3 hours followed by transferring of cell suspensions from each well into 12-tube PCR strips. The PCR strips were spun in a tip rack at 1000 rpm for 5 minutes to pellet cells and media was then removed by pipetting without disturbing the cell pellet.
To prepare for Western Blot analysis, cell pellets were resuspend in 40 ul 1× LDS-PAGE sample buffer (Invitrogen, cat.# NP0008)+2× Halt phophatase and protease inhibitor cocktail (Thermo Scientific, cat. #1861284), followed by sonicating each with microtip sonicator set at 5 for 8-10 seconds. Five ul of 10× NuPage Sample Reducing Agent (with 50 mM DTT) was to each sample followed by heat denaturing at 70 C for 10 min on PCR machine. A total of 10 μl per sample was loaded into each lane of a 4-20% Tris-Glycine Criterion 26-well gel (Biorad, cat. #345-0034) for the phospho-mu2 blot and 10 μl per lane in a 4-12% Bis-Tris (+MES buffer) NuPAGE 26-well gel (Invitrogen, cat.# WG1403BX10) for the mu2 blot. For controls, 2 ng of phospho-mu2 or 20 ng mu2/Flag proteins were loaded in the last well of each gel. After SDS-PAGE, samples on each gel were transferred to PVDF membrane using an iBlot and membranes were blocked for one hour in TBST+5% milk, followed by wash 3× for 5-10 min with TBST. Criterion gels were probed with rabbit anti-phospho-mu2 (1:5000; a rabbit polyclonal antibody produced by New England Peptide and affinity purified at Lexicon) in TBST+5% BSA, whereas, NuPAGE gels were probed with mouse anti-Flag (1:500; Sigma, cat.# F1804) in TBST+5% milk, and these primary antibodies were incubated overnight at 4° C. on a rocker.
In general terms: A western blot detects proteins with antibodies after separation by electrophoresis.

Where only a bound is given, the exact number is not on record here.

T1 sequence (Q2M2I8 1-863 isoform Q2M2I8-2): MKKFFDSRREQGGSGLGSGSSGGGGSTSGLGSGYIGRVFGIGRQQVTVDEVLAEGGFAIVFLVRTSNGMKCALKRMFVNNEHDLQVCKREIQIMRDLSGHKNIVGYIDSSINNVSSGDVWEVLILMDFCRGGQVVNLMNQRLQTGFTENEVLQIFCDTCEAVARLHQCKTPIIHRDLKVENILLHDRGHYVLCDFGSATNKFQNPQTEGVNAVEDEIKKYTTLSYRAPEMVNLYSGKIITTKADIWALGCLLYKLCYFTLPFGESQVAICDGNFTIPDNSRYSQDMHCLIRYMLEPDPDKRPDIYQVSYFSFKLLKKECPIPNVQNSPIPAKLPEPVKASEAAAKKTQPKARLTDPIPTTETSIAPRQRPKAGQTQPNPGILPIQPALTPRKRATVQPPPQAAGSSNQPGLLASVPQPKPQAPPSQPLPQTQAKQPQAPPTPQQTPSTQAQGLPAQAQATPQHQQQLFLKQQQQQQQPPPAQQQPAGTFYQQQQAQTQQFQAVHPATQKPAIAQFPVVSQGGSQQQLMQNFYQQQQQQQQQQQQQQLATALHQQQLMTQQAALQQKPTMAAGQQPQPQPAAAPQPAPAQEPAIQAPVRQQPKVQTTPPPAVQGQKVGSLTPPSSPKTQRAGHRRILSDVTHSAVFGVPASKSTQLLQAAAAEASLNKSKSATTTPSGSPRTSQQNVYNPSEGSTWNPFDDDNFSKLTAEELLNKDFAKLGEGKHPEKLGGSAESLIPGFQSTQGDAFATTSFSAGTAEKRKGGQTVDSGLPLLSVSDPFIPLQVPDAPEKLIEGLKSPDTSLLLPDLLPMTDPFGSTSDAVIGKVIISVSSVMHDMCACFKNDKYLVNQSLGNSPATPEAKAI

`COc1ncccc1-c1cnn2ccc(N3CCN(C(=O)[C@@H]4CCCN4)CC3)nc12` [(S)-(4-(3-(2-methoxypyridin-3-yl)pyrazolo[1,5-a]pyrimidin-5-yl)piperazin-1-yl)(pyrrolidin-2-yl)methanone]: the IC50 (commonly the concentration that gives 50% inhibition) was ≤ 10 nM against AAK1 [1] and ≤ 100 nM at AAK1 [2].
On the same counts, the results for `COCCOC(=O)N1CCN(c2ccn3ncc(-c4ccc(C)nc4OC)c3n2)CC1` [2-methoxyethyl 4-(3-(2-methoxy-6-methylpyridin-3-yl)pyrazolo[1,5-a]pyrimidin-5-yl)piperazine-1-carboxylate] are ≤ 10 nM and ≤ 100 nM.
Turning to `COC[C@H](C)OC(=O)N1CCN(c2ccn3ncc(-c4cccnc4OC)c3n2)CC1` [(S)-1-methoxypropan-2-yl 4-(3-(2-methoxypyridin-3-yl)pyrazolo[1,5-a]pyrimidin-5-yl)piperazine-1-carboxylate], the IC50 against AAK1 [1] and against AAK1 [2] was ≤ 10 nM each time.
Take `COC[C@@H](C)OC(=O)N1CCN(c2ccn3ncc(-c4cccnc4OC)c3n2)CC1` [(R)-1-methoxypropan-2-yl 4-(3-(2-methoxypyridin-3-yl)pyrazolo[1,5-a]pyrimidin-5-yl)piperazine-1-carboxylate]: the IC50 against AAK1 [1] was ≤ 10 nM; at AAK1 [2] it was ≤ 1000 nM.
Consider `COc1ccc(F)cc1-c1cnn2ccc(N3CCN(C(=O)[C@@H](N)C(C)C)CC3)nc12` [(S)-2-amino-1-(4-(3-(5-fluoro-2-methoxyphenyl)pyrazolo[1,5-a]pyrimidin-5-yl)piperazin-1-yl)-3-methylbutan-1-one], for which the IC50 on AAK1 [1] and at AAK1 [2] was ≤ 10 nM in each case.
In the case of `COc1ncccc1-c1cnn2ccc(N3CCN(C(=O)[C@@H](N)[C@@H](C)OC)CC3)nc12` [(2S,3R)-2-amino-3-methoxy-1-(4-(3-(2-methoxypyridin-3-yl)pyrazolo[1,5-a]pyrimidin-5-yl)piperazin-1-yl)butan-1-one], the IC50 is ≤ 10 nM at AAK1 [1] and ≤ 100 nM on AAK1 [2].
Take `COCC(C)(C)OC(=O)N1CCN(c2ccn3ncc(-c4cccnc4OC)c3n2)CC1` [1-methoxy-2-methylpropan-2-yl 4-(3-(2-methoxypyridin-3-yl)pyrazolo[1,5-a]pyrimidin-5-yl)piperazine-1-carboxylate]: the IC50 on AAK1 [1] was ≤ 10 nM; on AAK1 [2], ≤ 1000 nM.
On the same counts, the results for `CN[C@@H](CC(C)C)C(=O)N1CCN(c2ccn3ncc(-c4cccnc4OC)c3n2)CC1` [(S)-1-(4-(3-(2-methoxypyridin-3-yl)pyrazolo[1,5-a]pyrimidin-5-yl)piperazin-1-yl)-4-methyl-2-(methylamino)pentan-1-one] are ≤ 10 nM and ≤ 10 nM.
For `COc1ncccc1-c1cnn2ccc(N3CCN(C(=O)[C@@H](N)CC(C)C)CC3)nc12` [(S)-2-amino-1-(4-(3-(2-methoxypyridin-3-yl)pyrazolo[1,5-a]pyrimidin-5-yl)piperazin-1-yl)-4-methylpentan-1-one], in that order: ≤ 10 nM and ≤ 10 nM.
On the same counts, the results for `CCOC(=O)N1CCN(c2ccn3ncc(-c4cc(C)cnc4OC)c3n2)CC1` [ethyl 4-(3-(2-methoxy-5-methylpyridin-3-yl)pyrazolo[1,5-a]pyrimidin-5-yl)piperazine-1-carboxylate] are ≤ 10 nM and ≤ 100 nM.
Take `COc1ncccc1-c1cnn2ccc(N(C)C[C@@H]3CCCN3C(=O)OC(C)C)nc12` [(S)-isopropyl 2-(((3-(2-methoxypyridin-3-yl)pyrazolo[1,5-a]pyrimidin-5-yl)(methyl)amino)methyl)pyrrolidine-1-carboxylate]: the IC50 against AAK1 [1] and against AAK1 [2] was ≤ 10 nM throughout.
Consider `COc1ncc(F)cc1-c1cnn2ccc(N3CCN(C(=O)O[C@@H]4CCOC4)CC3)nc12` [(R)-tetrahydrofuran-3-yl 4-(3-(5-fluoro-2-methoxypyridin-3-yl)pyrazolo[1,5-a]pyrimidin-5-yl)piperazine-1-carboxylate], for which the IC50 at AAK1 [1] and at AAK1 [2] was ≤ 10 nM throughout.
For `[2H]C1([2H])N(C(=O)OC(C)C)C([2H])([2H])C([2H])([2H])N(c2ccn3ncc(-c4ccc(C)nc4OC)c3n2)C1([2H])[2H]` [isopropyl 4-(3-(2-methoxy-6-methylpyridin-3-yl)pyrazolo[1,5-a]pyrimidin-5-yl)-d8-piperazine-1-carboxylate], the half-maximal inhibitory concentration (IC50) against AAK1 [1] and against AAK1 [2] was ≤ 10 nM throughout.
With `COc1cc(C)ccc1-c1cnn2ccc(N3CCN(C(=O)OC(C)C)CC3)nc12` [isopropyl 4-(3-(2-methoxy-4-methylphenyl)pyrazolo[1,5-a]pyrimidin-5-yl)piperazine-1-carboxylate], the results for the IC50 against AAK1 [1] and against AAK1 [2] were ≤ 10 nM and ≤ 100 nM, respectively.
Turning to `COc1ccccc1-c1cnn2ccc(N3CCN(C(=O)[C@@H](N)C(C)C)CC3)nc12` [(S)-2-amino-1-(4-(3-(2-methoxyphenyl)pyrazolo[1,5-a]pyrimidin-5-yl)piperazin-1-yl)-3-methylbutan-1-one], the IC50 against AAK1 [1] and against AAK1 [2] was ≤ 10 nM in each case.
Regarding `CCOc1ncccc1-c1cnn2ccc(N3CCN(C(=O)OC(C)(C)C)CC3)nc12` [tert-butyl 4-(3-(2-ethoxypyridin-3-yl)pyrazolo[1,5-a]pyrimidin-5-yl)piperazine-1-carboxylate], the IC50 at AAK1 [1] and against AAK1 [2] was ≤ 10 nM throughout.
Consider `COc1ccc(F)cc1-c1cnn2ccc(N3CCN(C(=O)OC(C)C)CC3)nc12` [isopropyl 4-(3-(5-fluoro-2-methoxyphenyl)pyrazolo[1,5-a]pyrimidin-5-yl)piperazine-1-carboxylate], for which the IC50 against AAK1 [1] and against AAK1 [2] was ≤ 10 nM each time.
In the case of `COc1ccc(F)cc1-c1cnn2ccc(N3CCN(C(=O)[C@@H](N)CC(C)C)CC3)nc12` [(S)-2-amino-1-(4-(3-(5-fluoro-2-methoxyphenyl)pyrazolo[1,5-a]pyrimidin-5-yl)piperazin-1-yl)-4-methylpentan-1-one], the IC50 at AAK1 [1] and on AAK1 [2] was ≤ 10 nM throughout.
Regarding `CC(C)(C)[C@H](N)C(=O)N1CCN(c2ccn3ncc(-c4ccccc4)c3n2)CC1` [(S)-2-amino-3,3-dimethyl-1-(4-(3-phenylpyrazolo[1,5-a]pyrimidin-5-yl)piperazin-1-yl)butan-1-one], the values for the half-inhibitory concentration (IC50) against AAK1 [1] and at AAK1 [2] were ≤ 10 nM and ≤ 100 nM, respectively.
For `COc1ncc(-c2cnn3ccc(N4CCN(C(=O)OC(C)C)CC4)nc23)c(OC)n1` [isopropyl 4-(3-(2,4-dimethoxypyrimidin-5-yl)pyrazolo[1,5-a]pyrimidin-5-yl)piperazine-1-carboxylate], in that order: ≤ 10 nM and ≤ 100 nM.
Turning to `COc1nc(C)ccc1-c1cnn2ccc(N3CCN(C(=O)O[C@@H]4CCOC4)CC3)nc12` [(R)-tetrahydrofuran-3-yl 4-(3-(2-methoxy-6-methylpyridin-3-yl)pyrazolo[1,5-a]pyrimidin-5-yl)piperazine-1-carboxylate], the IC50 is ≤ 10 nM at AAK1 [1] and ≤ 100 nM against AAK1 [2].

The record behind these values is patent US9403832B2, “Pyrazolo[1,5-a]pyrimidine-based compounds, compositions comprising them, and methods of their use” (Lexicon Pharmaceuticals, Inc., priority 2012, dated 2016).
